Measurements from ChEMBL document CHEMBL3632591, “Discovery and structural diversity of the hepatitis C virus NS3/4A serine protease inhibitor series leading to clinical candidate IDX320” (Bioorg Med Chem Lett, 2015).
pEC50, pIC50: −log10 of the molar value.

Tests used:
[1] = Inhibition of recombinant full length HCV genotype 1b NS3/4A protease by FRET assay; parameters: species or system Hepatitis C virus subtype 1b
[2] = system: Hepatitis C virus; experiment: Antiviral activity against HCV genotype 1b infected in human HuH7 cells after 3 days by luciferase assay; type: functional, organism-based, Hepacivirus hominis; details: Huh-7, 72 h
[3] = Cytotoxicity against human HuH7 cells by colorimetric proliferation assay; type: cell-based, Huh-7
[4] = Intrinsic clearance in rat liver microsomes; type: ADME; details: read-out: CLH
[5] = Half life in rat liver microsomes; type: ADME
[6] = Intrinsic clearance in rat cryopreserved hepatocytes assessed per 10^6 cells; type: ADME, cell-based, Hepatocyte; details: read-out: CLH
[7] = Intrinsic clearance in human liver microsomes; type: ADME; details: read-out: CLH
[8] = Intrinsic clearance in monkey liver microsomes; type: ADME, Macaca mulatta; details: rhesus monkey, read-out: CLH
[9] = Cmax in Sprague-Dawley rat plasma at 2 mg/kg, iv administered as single dose measured after 8 hrs; type: ADME, organism-based; parameters: dose 2 mg/kg, route intravenous
[10] = Tmax in Sprague-Dawley rat at 2 mg/kg, iv administered as single dose; type: ADME, organism-based; details: in vivo
[11] = AUCt in Sprague-Dawley rat at 2 mg/kg, iv administered as single dose; type: ADME, organism-based; details: in vivo
[12] = Half life in Sprague-Dawley rat at 2 mg/kg, iv administered as single dose; type: ADME, organism-based; details: in vivo
[13] = Clearance in Sprague-Dawley rat at 2 mg/kg, iv administered as single dose; type: ADME, organism-based; details: in vivo
[14] = Cmax in Sprague-Dawley rat plasma at 10 mg/kg, po administered as single dose measured after 24 hrs; type: ADME, organism-based; parameters: dose 10 mg/kg, route oral
[15] = Tmax in Sprague-Dawley rat at 10 mg/kg, po administered as single dose; type: ADME, organism-based; details: in vivo
[16] = AUCt in Sprague-Dawley rat at 10 mg/kg, po administered as single dose; type: ADME, organism-based; details: in vivo
[17] = AUC (infinity) in Sprague-Dawley rat at 10 mg/kg, po administered as single dose; type: ADME, organism-based; parameters: dose 10 mg/kg, time infinity, route oral; details: in vivo
[18] = AUC (infinity) in Sprague-Dawley rat at 2 mg/kg, iv administered as single dose; type: ADME, organism-based; parameters: dose 2 mg/kg, route intravenous, time infinity; details: in vivo
[19] = Half life in Sprague-Dawley rat at 10 mg/kg, po administered as single dose; type: ADME, organism-based; details: in vivo
[20] = Oral bioavailability in Sprague-Dawley rat at 10 mg/kg administered as single dose; type: ADME, organism-based; details: in vivo

Compound | pIC50 [1] | pEC50 [2] | CC50 [3] [µM] | other results
COc1ccc2c(O[C@H]3C[C@H]4C(=O)N(C)CCCC/C=C/[C@@H]5C[C@@]5(C(=O)NS(=O)(=O)C5(C)CC5)NC(=O)N4C3)cc(-c3nc(C(C)C)cs3)nc2c1C | 8.74 | 7.14 | > 75 | microsomal CLint [4]: 12.6 µL/min/mg; half-life [5]: 112 min; hepatocyte CLint [6]: 12.3 µL/min/1e6 cells; microsomal CLint [7]: 9.8 µL/min/mg; microsomal CLint [8]: 37.8 µL/min/mg
COc1ccc2c(O[C@H]3C[C@H]4C(=O)N(C)CCCC/C=C/[C@@H]5C[C@@]5(C(=O)NS(=O)(=O)C5(C)CC5)NC(=O)N4C3)cc(-c3nc(C(C)C)cs3)nc2c1Cl | 8.64 | 7.25 | 48.5 | microsomal CLint [4]: 9.7 µL/min/mg; half-life [5]: 143 min; hepatocyte CLint [6]: 11.2 µL/min/1e6 cells; microsomal CLint [7]: 18.5 µL/min/mg; microsomal CLint [8]: 66.8 µL/min/mg
COc1ccc2c(O[C@H]3C[C@H]4C(=O)N(C)CCCC/C=C/[C@@H]5C[C@@]5(C(=O)NS(=O)(=O)C5(C)CC5)NC(=O)N4C3)cc(-c3nc(C(F)(F)F)cs3)nc2c1C | 9.30 | 7.89 | 75 | microsomal CLint [4]: 11.4 µL/min/mg; half-life [5]: 122 min; hepatocyte CLint [6]: 17.4 µL/min/1e6 cells; microsomal CLint [7]: 24 µL/min/mg; microsomal CLint [8]: 46.7 µL/min/mg; Cmax [9]: 2670 ng/mL; Tmax [10]: 4.8 min; AUC(0-t) [11]: 2540 ng·h/mL; half-life [12]: 90 min; clearance [13]: 13.2 mL/min/kg; Cmax [14]: 406 ng/mL; Tmax [15]: 1 h; AUC(0-t) [16]: 2230 ng·h/mL; AUC(0-inf) [17]: 2380 ng·h/mL; AUC(0-inf) [18]: 2570 ng·h/mL; half-life [19]: 312 min; bioavailability [20]: 18%
COc1ccc2c(O[C@H]3C[C@H]4C(=O)N(C)CCCC/C=C/[C@@H]5C[C@@]5(C(=O)NS(=O)(=O)C5(C)CC5)NC(=O)N4C3)cc(-c3csc(C(C)C)n3)nc2c1Cl | 9.10 | 7.49 | 30.2 | –
COc1ccc2c(O[C@H]3C[C@H]4C(=O)N(C)CCCC/C=C/[C@@H]5C[C@@]5(C(=O)NS(=O)(=O)C5(C)CC5)NC(=O)N4C3)cc(-c3csc(C(F)(F)F)n3)nc2c1Cl | 9.00 | 7.72 | 59 | –
COc1ccc2c(O[C@H]3C[C@H]4C(=O)N(C)CCCC/C=C/[C@@H]5C[C@@]5(C(=O)NS(=O)(=O)C5(C)CC5)NC(=O)N4C3)cc(-n3cc(C(C)C)cn3)nc2c1C | 9.05 | 7.19 | 9.61 | –
COc1ccc2c(O[C@H]3C[C@H]4C(=O)N(C)CCCC/C=C/[C@@H]5C[C@@]5(C(=O)NS(=O)(=O)C5(C)CC5)NC(=O)N4C3)cc(-n3cc(C(F)(F)F)cn3)nc2c1Cl | 9.40 | 7.57 | 21.9 | –
COc1ccc2c(O[C@H]3C[C@H]4C(=O)N(C)CCCC/C=C/[C@@H]5C[C@@]5(C(=O)NS(=O)(=O)C5(C)CC5)NC(=O)N4C3)cc(-n3cc(C(C)C)nn3)nc2c1Cl | 8.14 | 6.23 | 28.5 | –
COc1ccc2c(O[C@H]3C[C@H]4C(=O)N(C)CCCC/C=C/[C@@H]5C[C@@]5(C(=O)NS(=O)(=O)C5(C)CC5)NC(=O)N4C3)cc(C#N)nc2c1C | 8.19 | 6.30 | 55.8 | –
C#Cc1cccc(-c2cc(O[C@H]3C[C@H]4C(=O)N(C)CCCC/C=C/[C@@H]5C[C@@]5(C(=O)NS(=O)(=O)C5(C)CC5)NC(=O)N4C3)c3ccc(OC)c(C)c3n2)c1 | 8.15 | 7.07 | 75 | –
C#Cc1csc(-c2cc(O[C@H]3C[C@H]4C(=O)N(C)CCCC/C=C/[C@@H]5C[C@@]5(C(=O)NS(=O)(=O)C5(C)CC5)NC(=O)N4C3)c3ccc(OC)c(C)c3n2)n1 | 9.05 | 8.57 | 75 | –
COc1ccc2c(O[C@H]3C[C@H]4C(=O)N(C)CCCC/C=C/[C@@H]5C[C@@]5(C(=O)NS(=O)(=O)C5(C)CC5)NC(=O)N4C3)cc(-c3nc(C#N)cs3)nc2c1Cl | 8.00 | 7.05 | 75 | –
COc1ccc2c(OC[C@@H]3C[C@H]4C(=O)N(C)CCCC/C=C/[C@@H]5C[C@@]5(C(=O)NS(=O)(=O)C5(C)CC5)NC(=O)N34)cc(-c3nc(C(C)C)cs3)nc2c1C | – | – | – | microsomal CLint [4]: 364 µL/min/mg; half-life [5]: 3.8 min; microsomal CLint [7]: 299 µL/min/mg; microsomal CLint [8]: 500 µL/min/mg
COc1ccc2c(OC[C@@H]3C[C@H]4C(=O)N(C)CCCC/C=C/[C@@H]5C[C@@]5(C(=O)NS(=O)(=O)C5(C)CC5)NC(=O)N34)cc(-c3nc(C(C)C)cs3)nc2c1Cl | – | – | – | microsomal CLint [4]: 182 µL/min/mg; half-life [5]: 8 min; microsomal CLint [7]: 472 µL/min/mg; microsomal CLint [8]: 500 µL/min/mg

The next lines start with results.

pIC50 [1] | pEC50 [2] | Compound | CC50 [3] [µM] | other results
8.77 | 6.29 | COc1ccc2c(O[C@H]3C[C@H]4C(=O)N(C)CCCC/C=C/[C@@H]5C[C@@]5(C(=O)NS(=O)(=O)C5(C)CC5)NC(=O)N4C3)cc(-c3nc(C(C)C)cs3)nc2c1 | 42.7 | –
8.46 | 6.27 | COc1ccc2c(O[C@H]3C[C@H]4C(=O)N(C)CCCC/C=C/[C@@H]5C[C@@]5(C(=O)NS(=O)(=O)C5(C)CC5)NC(=O)N4C3)cc(-c3nc(C(C)C)cs3)nc2c1F | 33.5 | –
8.07 | 6.72 | COc1cc2c(O[C@H]3C[C@H]4C(=O)N(C)CCCC/C=C/[C@@H]5C[C@@]5(C(=O)NS(=O)(=O)C5(C)CC5)NC(=O)N4C3)cc(-c3nc(C(C)C)cs3)nc2cc1Cl | > 75 | –
9.30 | 7.54 | COc1ccc2c(O[C@H]3C[C@H]4C(=O)N(C)CCCC/C=C/[C@@H]5C[C@@]5(C(=O)NS(=O)(=O)C5(C)CC5)NC(=O)N4C3)cc(-c3nc(C(C)C)cs3)nc2c1Br | 51.2 | –
9.00 | 7.68 | COc1ccc2c(O[C@H]3C[C@H]4C(=O)N(C)CCCC/C=C/[C@@H]5C[C@@]5(C(=O)NS(=O)(=O)C5CC5)NC(=O)N4C3)cc(-c3nc(C4CC4)cs3)nc2c1Cl | 31.2 | –
8.89 | 7.54 | COc1ccc2c(O[C@H]3C[C@H]4C(=O)N(C)CCCC/C=C/[C@@H]5C[C@@]5(C(=O)NS(=O)(=O)C5(C)CC5)NC(=O)N4C3)cc(-c3nc(C4CCC4)cs3)nc2c1Cl | 75 | –
8.43 | 6.17 | COc1ccc2c(O[C@H]3C[C@H]4C(=O)N(C)CCCC/C=C/[C@@H]5C[C@@]5(C(=O)NS(=O)(=O)C5(C)CC5)NC(=O)N4C3)cc(-c3cc(C(C)C)on3)nc2c1Cl | 75 | –
9.05 | 8.10 | COc1ccc2c(O[C@H]3C[C@H]4C(=O)N(C)CCCC/C=C/[C@@H]5C[C@@]5(C(=O)NS(=O)(=O)C5CC5)NC(=O)N4C3)cc(-c3csc(C(F)(F)F)n3)nc2c1C | 75 | microsomal CLint [4]: 23.7 µL/min/mg; half-life [5]: 59 min; hepatocyte CLint [6]: 30 µL/min/1e6 cells; microsomal CLint [7]: 27.1 µL/min/mg; microsomal CLint [8]: 39.9 µL/min/mg
9.00 | 7.66 | COc1ccc2c(O[C@H]3C[C@H]4C(=O)N(C)CCCC/C=C/[C@@H]5C[C@@]5(C(=O)NS(=O)(=O)C5CC5)NC(=O)N4C3)cc(-c3nc(C)cs3)nc2c1Cl | 75 | –
7.59 | < 6.12 | COc1ccc2c(O[C@H]3C[C@H]4C(=O)N(C)CCCC/C=C/[C@@H]5C[C@@]5(C(=O)NS(=O)(=O)C5CC5)NC(=O)N4C3)cc(-c3noc(C)n3)nc2c1C | 75 | –
9.30 | 8.40 | C#Cc1csc(-c2cc(O[C@H]3C[C@H]4C(=O)N(C)CCCC/C=C/[C@@H]5C[C@@]5(C(=O)NS(=O)(=O)C5(C)CC5)NC(=O)N4C3)c3ccc(OC)c(Cl)c3n2)n1 | 17 | –
9.05 | 8.55 | C#Cc1csc(-c2cc(O[C@H]3C[C@H]4C(=O)N(C)CCCC/C=C/[C@@H]5C[C@@]5(C(=O)NS(=O)(=O)C5CC5)NC(=O)N4C3)c3ccc(OC)c(C)c3n2)n1 | 14.4 | –
9.10 | 8.40 | C=Cc1csc(-c2cc(O[C@H]3C[C@H]4C(=O)N(C)CCCC/C=C/[C@@H]5C[C@@]5(C(=O)NS(=O)(=O)C5(C)CC5)NC(=O)N4C3)c3ccc(OC)c(Cl)c3n2)n1 | 57.1 | –
9.22 | 9.70 | C#Cc1csc(-c2cc(O[C@H]3CCN4C(=O)N(C)CCCC/C=C/[C@@H]5C[C@@]5(C(=O)NS(=O)(=O)C5(C)CC5)NC(=O)[C@@H]4C3)c3ccc(OC)c(C)c3n2)n1 | > 75 | –
9.40 | 9.05 | COc1ccc2c(O[C@H]3CCN4C(=O)N(C)CCCC/C=C/[C@@H]5C[C@@]5(C(=O)NS(=O)(=O)C5CC5)NC(=O)[C@@H]4C3)cc(-c3nc(C(F)(F)F)cs3)nc2c1C | > 75 | –
